Measurements reported in article PMC9404989, “Design and Evaluation of Short Bovine Lactoferrin-Derived Antimicrobial Peptides against Multidrug-Resistant Enterococcus faecium” (Antibiotics, 2022).
“And” between values parts separate entries of the source, which are not always exact repeats. Equal values may be shown once. No end group written: not given here.

Tests used:
[1] = tested on: E. faecium C68 biofilm formation; experiment: Prevention of E. faecium biofilm formation (XTT, crystal violet); format: cell-based, Enterococcus faecium; conditions: for biomass depleted / biofilm formation inhibited: at 32 µg/mL, biofilm formation stage
Method: We evaluated the ability of the lactoferrin-derived peptides to inhibit biofilm formation following an established protocol with modifications. In short, we prepared exponential cultures of E. faecium C68 (adjusted to OD600 = 0.01) in BHI media (supplemented with 0.2% glucose) from overnight grown cultures. We added 90 µL of the bacterial culture to 10 µL of serially diluted 10× peptide solution in flat-bottomed 96-well polystyrene microtiter plates (Cat No. 3595, Corning, NY, USA) and then incubated the plates at 37 °C for 24 h. We considered media containing bacteria and water as the positive control, while media with water served as the negative control. After incubation, we carefully pipetted out the media and washed the wells with PBS (Gibco, Waltham, MA, USA) to remove loosely attached planktonic cells. We quantified the biomass by staining the biofilms with crystal violet following an established protocol and quantitated the concentration of peptide that inhibits 50% of biofilm formation (MBIC50). Furthermore, we measured the live cell count of the biofilms using XTT [2,3-bis(2-methyloxy-4-nitro-5-sulfophenyl)-2H-tertazolium-5-carboxanilide] dye (ATCC, Manassas, VA, USA). We calculated the percentage of biofilm growth by assuming that there was 100% biofilm growth in wells with bacteria without peptide treatment.

[2] = tested on: biofilm genes ace, esp, ebpA, ebpC of E. faecium strain C68; experiment: qPCR of genes associated with biofilm formation; format: cell-based, Enterococcus faecium; conditions: 0.5× MIC, 30 min, real-time PCR
Method: For the qPCR of genes associated with biofilm formation, we followed an established protocol for RNA isolation and quantitative PCR reactions with minor modifications. We prepared exponential cultures of E. faecium strain C68 adjusted to an OD600 = 0.4 in BHI media from overnight grown cultures. After treating 10 mL of bacterial culture with 0.5× MICs of 5L and 6L for 30 min, we extracted RNA using the RNeasy mini kit (Qiagen, Hilden, Germany) according to the manufacturer’s instructions. Using the primers listed in Supplementary Table S2, we performed cDNA synthesis and quantitative reverse transcription (RT)-PCR as recommended by the manufacturer (Bio-Rad, Hercules, CA, USA). Our qPCR cycling conditions were: 95 °C for 30 s; 40 cycles at 95 °C for 5 s; 55 °C for 30 s; and finished with a melt curve analysis from 65 to 95 °C.

[3] = tested on: E. faecium strain C68 primary metabolites; experiment: Targeted LC-MS/MS metabolomics; format: cell-based, Enterococcus faecium; conditions: 5L at 2× MIC, 30 min vs control, n = 3
Method: For the metabolomics sample preparation, we used exponential cultures of E. faecium strain C68 grown in BHI media adjusted to OD600 = 0.5. We treated 10 mL of this bacterial culture with 2× MIC of peptide 5L or water (for bacterial control) for 30 min at 37 °C (n = 3, technical replicates). After that, we washed the bacteria 3× times with PBS and stored the pellet at −20 °C. At a later stage, to each cell pellet, we added 0.2 mL of 2-propanol: 100 mM of NH4HCO3, pH 7.4 (1:1 v/v), and sonicated the cells. For spiking, we added 20 µL of IS to each sample and vortexed them. Subsequently, we added 1.0 mL of methanol for deproteinization and cooled the mixture at −20 °C for 10 min. After centrifugation for 10 min at 14,000× g at 4 °C, we transferred the supernatants into glass tubes and dried them under a stream of nitrogen at 40 °C. Finally, we dissolved the residues in 100 µL of water and injected 3 µL of this solution into an LC-MS/MS 8060 system (Shimadzu Scientific Inc., Columbia, MD, USA), equipped with a DUIS source operated in both positive and negative electrospray ionization modes. For the liquid chromatographic analysis, we used the Nexera UPLC system (Shimadzu Scientific Inc., Columbia, MD, USA). We quantitated primary metabolites (~150) following an established LC-MS/MS method.

HepG2 cells = experiment: Mammalian cell cytotoxicity assay (WST-1); format: cell-based, human; conditions: 24 h, WST-1, triplicates
Method: We used liver-derived HepG2 cells to evaluate AMP cytotoxicity behavior in mammalian cells based on an established protocol. We maintained the HepG2 cells at 37 °C in 5% CO2 in Dulbecco’s Modified Eagle Medium (DMEM) (Gibco, Waltham, MA, USA) supplemented with 10% fetal bovine serum (FBS) (Gibco, Gaithersburg, MD, USA) and 1% penicillin/streptomycin (Gibco, Gaithersburg, MD, USA). Next, we harvested and resuspended the cells in a fresh medium and distributed 50 µL ([…]) in a 96-well plate containing 50 µL of serially diluted AMPs in serum and antibiotic-free DMEM and incubated the plates at 37 °C in 5% CO2 for 24 h. Before the end of the incubation period (at the 20th hour), we added 10 µL of 2-(4-iodophenyl)-3-(4-nitrophenyl)-5-(2,4-disulfophenyl)-2H-tetrazolium (WST-1) (Roche, Mannheim, Germany) to each well and monitored the reduction of WST-1 at 450 nm using a SpectraMax i3x (Molecular Devices, San Jose, CA, USA). We performed the assays in triplicates and calculated the percentage of cell survival.

RRWLWLRRWLWR-NH2 [Peptide 5L]
biomass depleted / biofilm formation inhibited [1]: 90% | downregulation of ace expression [2]: 8 folds | downregulation of ebpA expression [2]: 2 fold | downregulation of ebpC expression [2]: 2 fold | downregulation of esp expression [2]: 4 fold | Fold change 2-Aminobutryc acid [3]: 0.480 fold | Fold change 4-Aminobutryc acid [3]: 4.319 fold | Fold change Adenine [3]: 0.311 fold | Fold change Adenylsuccinic acid [3]: 0.226 fold | Fold change Alanine [3]: 0.383 fold | Fold change Allantoin [3]: 2.67 fold | Fold change Arginosuccinic acid [3]: 0.204 fold | Fold change Aspartic acid [3]: 0.197 fold | Fold change Carbamoyl aspertate [3]: 2.212 fold | Fold change Citicoline [3]: 0.233 fold | Fold change Citric acid [3]: 0.244 fold | Fold change Cobalamine [3]: 2.285 fold | Fold change Cystathionine [3]: 0.369 fold | Fold change Cysteine [3]: 0.047 fold | Fold change Dopa [3]: 0.337 fold | Fold change Dopamine [3]: 3.107 fold | Fold change Fumaric acid [3]: 0.387 fold | Fold change Glutathione [3]: 0.376 fold | Fold change Guanine [3]: 0.130 fold | Fold change Guanosine [3]: 0.275 fold | Fold change Histidine [3]: 0.420 fold | Fold change Inosine [3]: 0.239 fold | Fold change Isocitric acid [3]: 0.237 fold | Fold change Isoleucine [3]: 0.458 fold | Fold change Kynureine [3]: 2.152 fold | Fold change Leucine [3]: 0.373 fold | Fold change Malic acid [3]: 0.392 fold | Fold change Methionine [3]: 0.175 fold | Fold change NAD [3]: 0.415 fold | Fold change Ornitine [3]: 0.378 fold | Fold change Oxidized glutathione [3]: 0.403 fold | Fold change Phenylalanine [3]: 0.423 fold | Fold change Putriscine [3]: 7.197 fold and 7 fold | Fold change S-Adenosylhomocysteine [3]: 0.267 fold | Fold change Serine [3]: 0.033 fold and 0.03 fold | Fold change Serotonin [3]: 2.886 fold | Fold change Succinic acid [3]: 0.204 fold | Fold change Symmetric dimethylarginine [3]: 2.347 fold | Fold change Threonine [3]: 0.384 fold | Fold change Thymidine [3]: 0.320 fold | Fold change Tryptophan [3]: 0.178 fold | Fold change Uridine [3]: 0.228 fold | Fold change Valine [3]: 0.433 fold | Fold change Xanthosine [3]: 0.315 fold | concentration without cell death in HepG2 cells (HepG2 cells): ≥ 128 µg/mL

RRWLWRLRWLWR-NH2 [Peptide 6L]
concentration killing 50% of live bacterial cells during biofilm formation stage ([1]; XTT, 24 h, BHI + 0.2% glucose): 1.2 µg/mL | biomass depleted / biofilm formation inhibited [1]: 90% and 92% | downregulation of ace expression [2]: 4 folds | downregulation of ebpC expression [2]: 2 fold | concentration without cell death in HepG2 cells (HepG2 cells): ≥ 128 µg/mL
